Results as given in ChEMBL document CHEMBL1201862, “PubChem BioAssay data set” (2004).
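Results reflect a 48-hour exposure of cells in 96-well plates to compound at five concentrations. Here, GI50 denotes the concentration required for 50% inhibition of growth.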 Calls of active or inactive are those of the source. Rule as the data show it: active = GI50 up to about 1.1 µM and inactive = higher.

Key:
Assay in all cases: NCI anticancer screen, dose series, 48 h
MOLT-4 = tested on: MOLT-4
Hs-578T = tested on: Hs-578T
OVCAR-5 = tested on: OVCAR-5
OVCAR-3 = tested on: OVCAR-3
OVCAR-8 = tested on: OVCAR-8
HOP-62 = tested on: HOP-62
DU-145 = tested on: DU-145
786-0 = tested on: 786-0
BT-549 = tested on: BT-549
SF-295 = tested on: SF-295
COLO 205 = tested on: COLO 205
NCI-H522 = tested on: NCI-H522
A549 = tested on: A549
HOP-92 = tested on: HOP-92
EKVX = tested on: EKVX
SK-MEL-5 = tested on: SK-MEL-5
Malme-3M = tested on: Malme-3M
RXF 393 = tested on: RXF 393
NCI/ADR-RES = tested on: NCI/ADR-RES
NCI-H226 = tested on: NCI-H226
UO-31 = tested on: UO-31
RPMI-8226 = tested on: RPMI-8226
A498 = tested on: A498
UACC-257 = tested on: UACC-257
K562 = tested on: K562
NCI-H460 = tested on: NCI-H460
SF-268 = tested on: SF-268
PC-3 = tested on: PC-3
CCRF-CEM = tested on: CCRF-CEM
IGROV-1 = tested on: IGROV-1
SNB-19 = tested on: SNB-19
MCF7 = tested on: MCF7
SK-MEL-28 = tested on: SK-MEL-28
OVCAR-4 = tested on: OVCAR-4
SN12C = tested on: SN12C
SW-620 = tested on: SW-620
UACC-62 = tested on: UACC-62
MDA-MB-231 = tested on: MDA-MB-231
T47D = tested on: T47D
SK-OV-3 = tested on: SK-OV-3
CAKI-1 = tested on: CAKI-1
SF-539 = tested on: SF-539
HCC 2998 = tested on: HCC 2998
HT-29 = tested on: HT-29
SK-MEL-2 = tested on: SK-MEL-2
HL-60 = tested on: HL-60
TK-10 = tested on: TK-10
ACHN = tested on: ACHN
LOX IMVI = tested on: LOX IMVI
U-251 = tested on: U-251
HCT-15 = tested on: HCT-15
MDA-MB-435 = tested on: MDA-MB-435
NCI-H23 = tested on: NCI-H23
SNB-75 = tested on: SNB-75
HCT-116 = tested on: HCT-116
KM12 = tested on: KM12
MDA-N = tested on: MDA-N
M14 = tested on: M14
SR = tested on: SR

Structure (SMILES): O=C(c1cc(Br)ccc1O)c1cc(Br)ccc1O
- GI50 (MOLT-4): 18.4 µM (inactive)
- GI50 (Hs-578T): 29.8 µM (inactive)
- GI50 (OVCAR-5): 17.4 µM (inactive)
- GI50 (OVCAR-3): 15.7 µM (inactive)
- GI50 (OVCAR-8): 16.9 µM (inactive)
- GI50 (HOP-62): 18.7 µM (inactive)
- GI50 (DU-145): 15.8 µM (inactive)
- GI50 (786-0): 16.9 µM (inactive)
- GI50 (BT-549): 17.8 µM (inactive)
- GI50 (SF-295): 17.7 µM (inactive)
- GI50 (COLO 205): 17.4 µM (inactive)
- GI50 (NCI-H522): 15 µM (inactive)
- GI50 (A549): 17.5 µM (inactive)
- GI50 (HOP-92): 13.6 µM (inactive)
- GI50 (EKVX): 15.6 µM (inactive)
- GI50 (SK-MEL-5): 12.6 µM (inactive)
- GI50 (Malme-3M): 17.3 µM (inactive)
- GI50 (RXF 393): 14.7 µM (inactive)
- GI50 (NCI/ADR-RES): 18.8 µM (inactive)
- GI50 (NCI-H226): 20 µM (inactive)
- GI50 (UO-31): 14.3 µM (inactive)
- GI50 (RPMI-8226): 11.3 µM (inactive)
- GI50 (A498): 17.6 µM (inactive)
- GI50 (UACC-257): 15.7 µM (inactive)
- GI50 (K562): 15.3 µM (inactive)
- GI50 (NCI-H460): 17.6 µM (inactive)
- GI50 (SF-268): 19.5 µM (inactive)
- GI50 (PC-3): 17.1 µM (inactive)
- GI50 (CCRF-CEM): 22.5 µM (inactive)
- GI50 (IGROV-1): 14.3 µM (inactive)
- GI50 (SNB-19): 17.2 µM (inactive)
- GI50 (MCF7): 16.8 µM (inactive)
- GI50 (SK-MEL-28): 16.8 µM (inactive)
- GI50 (OVCAR-4): 16.6 µM (inactive)
- GI50 (SN12C): 16.7 µM (inactive)
- GI50 (SW-620): 16.4 µM (inactive)
- GI50 (UACC-62): 13.1 µM (inactive)
- GI50 (MDA-MB-231): 17.2 µM (inactive)
- GI50 (T47D): 14.2 µM (inactive)
- GI50 (SK-OV-3): 19.4 µM (inactive)
- GI50 (CAKI-1): 18.2 µM (inactive)
- GI50 (SF-539): 21.2 µM (inactive)
- GI50 (HCC 2998): 19.1 µM (inactive)
- GI50 (HT-29): 17.7 µM (inactive)
- GI50 (SK-MEL-2): 15.7 µM (inactive)
- GI50 (HL-60): 22.4 µM (inactive)
- GI50 (TK-10): 18.9 µM (inactive)
- GI50 (ACHN): 16.4 µM (inactive)
- GI50 (LOX IMVI): 18.2 µM (inactive)
- GI50 (U-251): 15.5 µM (inactive)
- GI50 (HCT-15): 18.7 µM
- GI50 (MDA-MB-435): 15.8 µM (inactive)
- GI50 (NCI-H23): 17.1 µM (inactive)
- GI50 (SNB-75): 16.4 µM (inactive)
- GI50 (HCT-116): 15.9 µM (inactive)
- GI50 (KM12): 17.1 µM (inactive)
- GI50 (MDA-N): 14.3 µM (inactive)
- GI50 (M14): 15.7 µM (inactive)

Structure (SMILES): N#Cc1c(NC(=S)NC(=O)c2ccccc2)nc2c(c1-c1ccccc1)CCCC2
- GI50 (MOLT-4): > 100 µM (inactive)
- GI50 (Hs-578T): 17 µM (inactive)
- GI50 (OVCAR-5): > 100 µM (inactive)
- GI50 (OVCAR-3): > 100 µM (inactive)
- GI50 (SR): > 100 µM (inactive)
- GI50 (OVCAR-8): 36.6 µM (inactive)
- GI50 (HOP-62): 45.3 µM (inactive)
- GI50 (DU-145): > 100 µM (inactive)
- GI50 (BT-549): 30.5 µM (inactive)
- GI50 (SF-295): 34.9 µM (inactive)
- GI50 (COLO 205): > 100 µM (inactive)
- GI50 (A549): > 100 µM (inactive)
- GI50 (SK-MEL-5): 73.6 µM (inactive)
- GI50 (Malme-3M): > 10 µM (inactive)
- GI50 (RXF 393): 17.8 µM (inactive)
- GI50 (NCI/ADR-RES): 51.6 µM (inactive)
- GI50 (UO-31): 88.7 µM (inactive)
- GI50 (RPMI-8226): > 100 µM (inactive)
- GI50 (UACC-257): > 100 µM (inactive)
- GI50 (K562): > 100 µM (inactive)
- GI50 (NCI-H460): > 100 µM (inactive)
- GI50 (SF-268): 0.299 µM (active)
- GI50 (PC-3): > 100 µM (inactive)
- GI50 (CCRF-CEM): > 100 µM (inactive)
- GI50 (IGROV-1): > 100 µM (inactive)
- GI50 (SNB-19): > 100 µM (inactive)
- GI50 (MCF7): 58.9 µM (inactive)
- GI50 (SK-MEL-28): 78.7 µM (inactive)
- GI50 (OVCAR-4): 22.5 µM (inactive)
- GI50 (SN12C): > 10 µM (inactive)
- GI50 (SW-620): > 100 µM (inactive)
- GI50 (UACC-62): > 100 µM (inactive)
- GI50 (MDA-MB-231): 93.8 µM (inactive)
- GI50 (T47D): 17.7 µM (inactive)
- GI50 (SK-OV-3): 31.4 µM (inactive)
- GI50 (CAKI-1): > 100 µM (inactive)
- GI50 (HT-29): > 100 µM (inactive)
- GI50 (HL-60): > 100 µM (inactive)
- GI50 (TK-10): > 100 µM (inactive)
- GI50 (LOX IMVI): > 100 µM (inactive)
- GI50 (U-251): > 100 µM (inactive)
- GI50 (HCT-15): > 100 µM
- GI50 (MDA-MB-435): > 100 µM (inactive)
- GI50 (NCI-H23): > 100 µM (inactive)
- GI50 (SNB-75): 17.1 µM (inactive)
- GI50 (HCT-116): > 100 µM (inactive)
- GI50 (KM12): > 100 µM (inactive)
- GI50 (MDA-N): > 100 µM (inactive)
- GI50 (M14): > 100 µM (inactive)

Structure (SMILES): CN(C)C(C1=C(O)C(c2ccccc2)N(c2ccccc2)C1=O)N1CCOCC1 (stereo not given)
- GI50 (MOLT-4): > 10 µM (inactive)
- GI50 (Hs-578T): > 10 µM (inactive)
- GI50 (OVCAR-5): > 10 µM (inactive)
- GI50 (OVCAR-3): > 10 µM (inactive)
- GI50 (OVCAR-8): > 10 µM (inactive)
- GI50 (HOP-62): > 10 µM (inactive)
- GI50 (DU-145): > 10 µM (inactive)
- GI50 (786-0): > 10 µM (inactive)
- GI50 (BT-549): > 10 µM (inactive)
- GI50 (SF-295): > 10 µM (inactive)
- GI50 (COLO 205): > 10 µM (inactive)
- GI50 (NCI-H522): > 10 µM (inactive)
- GI50 (A549): > 10 µM (inactive)
- GI50 (HOP-92): > 10 µM (inactive)
- GI50 (EKVX): > 10 µM (inactive)
- GI50 (SK-MEL-5): > 10 µM (inactive)
- GI50 (Malme-3M): > 10 µM (inactive)
- GI50 (RXF 393): > 10 µM (inactive)
- GI50 (NCI/ADR-RES): > 10 µM (inactive)
- GI50 (NCI-H226): > 10 µM (inactive)
- GI50 (UO-31): > 10 µM (inactive)
- GI50 (RPMI-8226): > 10 µM (inactive)
- GI50 (A498): > 10 µM (inactive)
- GI50 (UACC-257): > 10 µM (inactive)
- GI50 (K562): > 10 µM (inactive)
- GI50 (NCI-H460): > 10 µM (inactive)
- GI50 (SF-268): > 10 µM (inactive)
- GI50 (PC-3): > 10 µM (inactive)
- GI50 (CCRF-CEM): > 10 µM (inactive)
- GI50 (IGROV-1): > 10 µM (inactive)
- GI50 (SNB-19): > 10 µM (inactive)
- GI50 (MCF7): > 10 µM (inactive)
- GI50 (SK-MEL-28): > 10 µM (inactive)
- GI50 (OVCAR-4): > 10 µM (inactive)
- GI50 (SN12C): > 10 µM (inactive)
- GI50 (SW-620): > 10 µM (inactive)
- GI50 (UACC-62): > 10 µM (inactive)
- GI50 (MDA-MB-231): > 10 µM (inactive)
- GI50 (T47D): > 10 µM (inactive)
- GI50 (SK-OV-3): > 10 µM (inactive)
- GI50 (CAKI-1): > 10 µM (inactive)
- GI50 (SF-539): > 10 µM (inactive)
- GI50 (HCC 2998): > 10 µM (inactive)
- GI50 (HT-29): > 10 µM (inactive)
- GI50 (SK-MEL-2): > 10 µM (inactive)
- GI50 (HL-60): > 10 µM (inactive)
- GI50 (TK-10): > 10 µM (inactive)
- GI50 (ACHN): > 10 µM (inactive)
- GI50 (LOX IMVI): > 10 µM (inactive)
- GI50 (U-251): > 10 µM (inactive)
- GI50 (HCT-15): > 10 µM
- GI50 (MDA-MB-435): > 10 µM (inactive)
- GI50 (NCI-H23): > 10 µM (inactive)
- GI50 (SNB-75): > 10 µM (inactive)
- GI50 (HCT-116): > 10 µM (inactive)
- GI50 (KM12): > 10 µM (inactive)
- GI50 (MDA-N): > 10 µM (inactive)
- GI50 (M14): > 10 µM (inactive)
